According to PubChem BioAssay (NCI):
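Five concentrations, 48 hours, 96-well plates. At the GI50, growth is halved. TGI: concentration producing complete growth inhibition.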

Key:
Experiment in all cases: NCI-60 cell line screen, 48 h
[1] = tested on: 786-0 renal
[2] = tested on: A549 NSCLC
[3] = tested on: CCRF-CEM leukemia
[4] = tested on: EKVX NSCLC
[5] = tested on: HL-60(TB) leukemia
[6] = tested on: HT29 colon
[7] = tested on: MALME-3M melanoma
[8] = tested on: NCI-H23 lung
[9] = tested on: NCI/ADR-RES ovarian
[10] = tested on: OVCAR-4 ovarian
[11] = tested on: SF-295 CNS
[12] = tested on: SK-MEL-2 melanoma
[13] = tested on: SK-MEL-5 melanoma
[14] = tested on: SK-OV-3 ovarian
[15] = tested on: SNB-75 CNS
[16] = tested on: U251 CNS
[17] = tested on: UO-31 renal

SMILES	TGI [1] [µM]	TGI [2] [µM]	TGI [3] [µM]	TGI [4] [µM]	TGI [5] [µM]	TGI [6] [µM]	TGI [7] [µM]	TGI [8] [µM]	TGI [9] [µM]	TGI [10] [µM]	TGI [11] [µM]	TGI [12] [µM]	TGI [13] [µM]	TGI [14] [µM]	TGI [15] [µM]	TGI [16] [µM]	TGI [17] [µM]	GI50 [5] [µM]	GI50 [10] [µM]	GI50 [15] [µM]
CC(C)(C)OC(=O)N1CCC2(C)CC(=O)CC=C12 (configuration not stated)	> 100	> 100	> 100	> 100	> 100	> 100	> 100	> 100	> 100	> 100	> 100	> 100	> 100	> 100	> 100	> 100	> 100	–	–	–
C[C@]12C[C@@H](c3ccccc3)Nc3ccccc3N1C(c1ccccc1)=NO2	> 100	> 100	74.3	79.3	71.9	> 100	> 100	> 100	> 100	81.9	> 100	76.3	30.8	> 100	69.4	> 100	89.5	–	–	–
CC(=O)c1cccc(Nc2nc3ccc(Cl)cc3c3[nH]c4ccccc4c23)c1	11.3	8.45	> 100	14.9	> 100	48.5	> 100	> 73.8	79.5	21.5	11.1	30.8	17	15.9	8.16	14.7	41.9	> 100	3.56	2.04
Cn1c(Cl)cn2c3nc4ccccc4nc3c(=O)c(C#N)c12	> 100	> 100	> 100	> 100	> 100	> 100	> 100	> 100	> 100	> 100	> 100	> 100	> 100	> 100	> 81.5	> 100	> 100	–	–	–
CCOc1cc2c(cc1O)CC[C@@H]1[C@@H]2CC[C@]2(C)C(N)CC[C@@H]12 (some centres not stated)	13.8	16.1	18.2	20.9	> 25.1	6.4	28.2	16.7	8.98	58.7	12.5	21.3	16.7	17.6	6.48	9.37	16.2	–	–	–
COc1ccc(C2=NN(C(N)=S)C(c3ccccc3)C2)cc1 (configuration not stated)	> 100	> 100	> 100	> 100	52.9	> 100	82.2	> 100	> 100	> 100	96.2	78.4	32.3	> 100	87.5	> 100	> 100	–	–	–
N#Cc1ccc(C(=O)/C=C/c2ccc(O)c(O)c2)cc1	> 52.9	31.8	14.3	31.8	19.8	31.2	29.3	33	> 65.8	25.7	33.9	33.8	28.5	> 57.7	36.6	26.2	25.1	–	–	–
Cc1ccc(C)n1-c1ccccc1C1C=CN(C(=O)OC(C)(C)C)C=C1	> 100	> 100	> 100	60.8	> 100	27.7	47.8	> 100	> 100	> 100	> 100	35.6	> 100	> 100	56.6	77.8	> 100	–	–	–
NC(=S)N/N=C1/CCCC2CCCC[C@@H]12 (some centres not stated)	> 100	> 100	> 100	> 100	> 100	> 100	> 100	> 100	> 100	> 100	> 100	> 100	> 100	> 100	> 100	> 100	> 100	–	–	–
Oc1ccc(Cc2nccc3cc(O)c(O)cc23)cc1O	> 100	> 100	60.3	> 100	> 100	> 100	> 100	> 100	> 100	> 100	> 100	> 100	> 100	> 100	> 100	> 100	> 100	–	–	–
O=P1(c2ccccc2)C(c2ccccc2)=CC=C1c1ccccc1	> 100	> 100	62.7	> 100	9.31	50.2	> 100	> 100	> 100	> 100	> 100	40.9	28.4	> 100	60.1	43.8	> 100	–	–	–
COc1c(Br)cc(/C=C(\C#N)c2cccnc2)cc1Br	> 100	> 100	> 100	> 100	> 100	> 100	> 100	> 100	> 100	> 100	> 100	> 100	> 100	> 100	> 100	> 100	> 100	–	–	–
CN(N)/N=N/c1nc[nH]c1[N+](=O)[O-]	55.2	> 100	33	> 100	12.2	> 100	> 100	> 100	> 100	> 100	> 100	> 100	> 100	> 100	> 100	> 100	> 100	–	–	–
Nc1nc2n[nH]nc2c(=O)[nH]1	> 100	> 100	> 100	> 100	16.5	> 100	16.8	> 100	> 100	> 100	> 33.1	1.69	13.8	9.21	> 66.8	> 100	29.3	–	–	–
COc1ccc(NC(=O)/C(=N/NC(N)=S)C2C(=O)NC(=S)NC2=O)c(OC)c1	> 100	> 100	> 100	> 100	> 100	> 100	> 100	> 100	> 100	> 100	> 100	> 100	> 100	> 100	> 100	> 100	> 100	–	–	–
C=CC[C@@]1([C@H](C=C)COCc2ccc(OC)cc2)CC[C@]2(C)OC(C)(C)[C@@H](c3ccccc3)N2C1=S	> 100	> 100	> 100	> 100	> 100	> 100	> 100	> 100	> 100	> 100	> 100	62.3	61.8	> 100	> 100	> 100	> 100	–	–	–
Cc1c(F)c(N)c2c(=O)cc(-c3ccc(N)c(F)c3)oc2c1F	34.9	59	> 100	54.7	> 100	98.6	> 91.4	68.4	42.4	48.8	43.2	81.2	67	38.1	56.2	33.1	60.1	–	–	–
Cc1ccc(N(C(=O)Nc2ccc(F)c(Cl)c2)C2=NCC(C)S2)cc1 (configuration not stated)	> 100	> 100	> 100	> 100	73.2	> 100	> 100	> 100	73.2	> 100	> 100	> 100	41	> 100	> 100	> 100	> 100	–	–	–
CCOC(=O)[C@@H]1CCN2CN(c3ccc(OC)cc3)N=C(c3ccccc3)[C@@]12c1ccccc1	51.7	> 100	> 100	> 100	> 100	72.4	37.9	73.5	67.9	> 100	77.1	46.1	30.5	> 100	57.7	79.6	77.2	–	–	–
Cc1ccc(C(=O)Nc2ccc(CP(=O)(O)O)cc2CP(=O)(O)O)cc1NC(=O)c1cccc(NC(=O)Nc2cccc(C(=O)Nc3cc(C(=O)Nc4ccc(CP(=O)(O)O)cc4CP(=O)(O)O)ccc3C)c2)c1	> 100	> 100	> 100	> 100	> 100	> 100	> 100	> 100	> 100	> 100	> 100	> 100	> 100	> 100	> 100	> 100	> 100	–	–	–
c1ccc2c(c1)cc1c3[nH]c4ccccc4c3ccn21	> 10	> 10	> 10	> 10	> 10	> 10	4.48	> 10	> 10	> 10	> 10	> 10	> 10	> 10	> 10	> 10	> 10	–	–	–
NC1CC(Cl)c2c(Cl)sc(Cl)c21 (configuration not stated)	> 100	> 100	> 100	> 100	> 100	> 100	> 100	> 100	> 100	> 100	> 100	> 100	> 100	> 100	> 100	> 100	> 100	–	–	–
